Test results as given in the supplement of paper PMC11061612.

How the values were obtained:
Experiment in all cases: Bliss excess, mean over the matrix (fraction); higher = more synergy
[1] = test system: A4-Fuk (B-Lymphoblastic Leukemia)
Summary of the method: (§1)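 After 24 hours at 37°C and 5% CO2 in 1536-well plates, cells in DMEM/F12 or RPMI plus 10% FBS received two-drug dose matrices for 72 hours. Viability came from CellTiter-Glo 2.0 luminescence and was scaled as inhibition, anchored at 0 by vehicle wells and at 1 by blank wells. Combination Emax is taken as the second-highest inhibition in the matrix, and Bliss excess as the observed combination effect less EA + EB − EA·EB, with EA and EB the single-agent effects.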

[2] = test system: ALL-SIL (T-Lymphoblastic Leukemia)
Summary of the method: as §1

[3] = test system: COLO-668 (Small Cell Lung Carcinoma)
Summary of the method: as §1

[4] = test system: Ca-Ski (Cervical Carcinoma)
Summary of the method: as §1

[5] = test system: DU-145 (Prostate Carcinoma)
Summary of the method: as §1

EW-1 (Ewing's Sarcoma) = test system: EW-1 (Ewing's Sarcoma)
Summary of the method: as §1

[6] = test system: HCC1500 (Breast Carcinoma)
Summary of the method: as §1

[7] = test system: HCC1937 (Breast Carcinoma)
Summary of the method: as §1

[8] = test system: KMRC-1 (Kidney Carcinoma)
Summary of the method: as §1

[9] = test system: LC-1-sq (Squamous Cell Lung Carcinoma)
Summary of the method: as §1

[10] = test system: ME-180 (Cervical Carcinoma)
Summary of the method: as §1

[11] = test system: MOLT-4 (T-Lymphoblastic Leukemia)
Summary of the method: as §1

[12] = test system: MV-4-11 (Acute Myeloid Leukemia)
Summary of the method: as §1

[13] = test system: NCI-H1092 (Small Cell Lung Carcinoma)
Summary of the method: as §1

[14] = test system: NCI-H1355 (Lung Adenocarcinoma)
Summary of the method: as §1

[15] = test system: NCI-H1838 (Lung Adenocarcinoma)
Summary of the method: as §1

[16] = test system: NCI-H522 (Lung Adenocarcinoma)
Summary of the method: as §1

[17] = test system: OE33 (Esophageal Adenocarcinoma)
Summary of the method: as §1

[18] = test system: SNU-387 (Hepatocellular Carcinoma)
Summary of the method: as §1

[19] = test system: SW872 (Other Solid Carcinomas)
Summary of the method: as §1

SMILES	Bliss excess [1]	Bliss excess [2]	Bliss excess [3]	Bliss excess [4]	Bliss excess [5]	Bliss excess (EW-1 (Ewing's Sarcoma))	Bliss excess [6]	Bliss excess [7]	Bliss excess [8]	Bliss excess [9]	Bliss excess [10]	Bliss excess [11]	Bliss excess [12]	Bliss excess [13]	Bliss excess [14]	Bliss excess [15]	Bliss excess [16]	Bliss excess [17]	Bliss excess [18]	Bliss excess [19]
C=CCn1c(=O)c2cnc(Nc3ccc(N4CCN(C)CC4)cc3)nc2n1-c1cccc(C(C)(C)O)n1 [AZD1775] + O=C(c1cc(Cc2n[nH]c(=O)c3ccccc23)ccc1F)N1CCN(C(=O)C2CC2)CC1 [Olaparib] (first compound max 1 µM, partner max 10 µM)	-0.0794	-0.0303	0.0104	-0.0474	-0.073	-0.0235	0.0158	-0.0813	-0.0224	-0.0216	-0.0244	0.0101	0.0445	-0.0342	-0.0671	-0.0774	0.0441	0.0117	-0.075	0.0141
COc1nnc2ccc(N3CCC(c4ccc(OCCN5CCN(C)C(=O)[C@H]5C)cc4)CC3)nn12 [AZD5153] + Cc1c2c(nn1C)CSCc1cc(n(C)n1)CSc1cc(c3ccccc3c1)OCCCc1c(C(=O)O)n(C)c3c-2c(Cl)ccc13 [AZD5991] (first compound max 1 µM, 7x7, partner max 1 µM)	-0.044	0.041	0.0265	0.0415	-0.021	0.0165	0.052	-0.0426	-0.0482	0.0198	-0.0435	0.0492	-0.0001	0.003	-0.0274	-0.0412	0.0012	-0.0711	-0.0082	-0.0229
CC1(C)CCC(CN2CCN(c3ccc(C(=O)NS(=O)(=O)c4ccc(NCC5CCOCC5)c([N+](=O)[O-])c4)c(Oc4cnc5[nH]ccc5c4)c3)CC2)=C(c2ccc(Cl)cc2)C1 [Venetoclax] + C[C@@H](Nc1cc(F)cc(F)c1)c1cc(C(=O)N(C)C)cc2c(=O)cc(N3CCOCC3)oc12 [AZD8186] (first compound max 1 µM, 7x7, partner max 3 µM)	-0.0046	0.0344	0.0418	-0.0259	-0.0239	-0.001	0.0626	-0.0179	-0.0198	-0.0254	-0.015	-0.0204	0.0641	0.0667	-0.0256	-0.031	-0.0273	-0.0169	-0.0264	-0.0247
COc1cccc(OCCCN)c1-c1cc(Nc2cnc(C#N)cn2)n[nH]1 [Prexasertib] + CN(C)CCCOc1ccc(-c2ccc3ncc4c(c3c2)n(C2CCOCC2)c(=O)n4C)cn1 [AZD0156] (first compound max 1 µM, 7x7, partner max 1 µM)	-0.0593	-0.0838	-0.0161	-0.0373	-0.0405	-0.0145	0.0475	0.0409	-0.0317	-0.0038	-0.0255	0.0108	-0.0249	-0.0561	-0.0429	-0.0285	-0.0189	-0.0272	-0.0232	-0.0035
COc1nnc2ccc(N3CCC(c4ccc(OCCN5CCN(C)C(=O)[C@H]5C)cc4)CC3)nn12 [AZD5153] + CC1(C)CCC(CN2CCN(c3ccc(C(=O)NS(=O)(=O)c4ccc(NCC5CCOCC5)c([N+](=O)[O-])c4)c(Oc4cnc5[nH]ccc5c4)c3)CC2)=C(c2ccc(Cl)cc2)C1 [Venetoclax] (first compound max 1 µM, 7x7, partner max 1 µM)	-0.0678	0.0565	0.0229	-0.095	-0.0181	-0.068	-0.04	-0.0815	-0.063	0.0066	-0.0515	-0.0198	0.0014	0.0191	-0.0243	-0.0605	-0.0711	-0.0775	-0.0699	-0.051
Cn1cnc2c(F)c(Nc3ccc(Br)cc3Cl)c(C(=O)NOCCO)cc21 [Selumetinib] + C=CCn1c(=O)c2cnc(Nc3ccc(N4CCN(C)CC4)cc3)nc2n1-c1cccc(C(C)(C)O)n1 [AZD1775] (first compound max 10 µM, partner max 1 µM)	-0.0651	-0.0934	-0.0563	0.0199	0.0039	-0.0347	-0.0261	-0.0357	-0.0061	-0.095	-0.071	-0.02	0.0249	-0.0961	-0.0037	-0.0506	-0.059	-0.0911	-0.0766	0.0086
Cc1c2c(nn1C)CSCc1cc(n(C)n1)CSc1cc(c3ccccc3c1)OCCCc1c(C(=O)O)n(C)c3c-2c(Cl)ccc13 [AZD5991] + C[C@@H]1COCCN1C2=NC(=NC(=C2)C3(CC3)[S@](=N)(=O)C)C4=C5C=CNC5=NC=C4 [AZD6738] (first compound max 1 µM, 7x7, partner max 10 µM)	-0.0297	0.0316	-0.0064	0.0267	0.0122	0.0344	0.105	0.061	0.0201	0.047	0.0329	0.0318	0.0008	0.0651	0.0264	-0.0021	0.0595	-0.0688	0.0408	0.0323
NC1(C(=O)N[C@@H](CCO)c2ccc(Cl)cc2)CCN(c2ncnc3[nH]ccc23)CC1 [Capivasertib] + C[C@@H]1COCCN1C2=NC(=NC(=C2)C3(CC3)[S@](=N)(=O)C)C4=C5C=CNC5=NC=C4 [AZD6738] (first compound max 10 µM, 7x7, partner max 10 µM)	-0.0841	-0.0322	-0.0501	0.0076	-0.0128	0.0229	0.0226	-0.0142	-0.0504	-0.0984	-0.066	0.0011	-0.0546	-0.0055	-0.0317	-0.0733	-0.0483	-0.0225	-0.0613	-0.0244
Cn1cnc2c(F)c(Nc3ccc(Br)cc3Cl)c(C(=O)NOCCO)cc21 [Selumetinib] + CC(C)n1c(=O)n(C)c2cnc3cc(F)c(-c4ccc(OCCCN5CCCCC5)nc4)cc3c21 [AZD1390] (first compound max 10 µM, 7x7, partner max 0.3 µM)	0.0335	-0.0164	0.0314	-0.0032	-0.0312	-0.0419	-0.0156	-0.0161	-0.0685	-0.0465	-0.0521	0.0535	-0.0719	-0.0468	0.0043	-0.0514	-0.0483	-0.0277	-0.0512	0.0169
COc1cccc(OCCCN)c1-c1cc(Nc2cnc(C#N)cn2)n[nH]1 [Prexasertib] + C[C@@H]1COCCN1C2=NC(=NC(=C2)C3(CC3)[S@](=N)(=O)C)C4=C5C=CNC5=NC=C4 [AZD6738] (first compound max 1 µM, 7x7, partner max 10 µM)	-0.0602	-0.0175	0.0269	-0.0134	-0.0844	-0.0158	0.0568	-0.0129	0.0101	-0.0361	0.0255	0.0087	-0.0356	-0.0568	0.0276	-0.174	0.0392	-0.0334	0.0035	0.01
COc1nnc2ccc(N3CCC(c4ccc(OCCN5CCN(C)C(=O)[C@H]5C)cc4)CC3)nn12 [AZD5153] + CCN(CCO)CCCOc1ccc2c(Nc3cc(CC(=O)Nc4cccc(F)c4)[nH]n3)ncnc2c1 [AZD2811] (first compound max 1 µM, 7x7, partner max 1 µM)	-0.0025	0.0139	-0.0268	-0.0238	-0.0241	-0.0086	0.0233	-0.0581	-0.0437	-0.0282	-0.0644	0.0277	-0.0185	0.0499	0.0143	-0.0282	-0.115	-0.0523	-0.0837	-0.0335
CCN(CCO)CCCOc1ccc2c(Nc3cc(CC(=O)Nc4cccc(F)c4)[nH]n3)ncnc2c1 [AZD2811] + O=C(c1cc(Cc2n[nH]c(=O)c3ccccc23)ccc1F)N1CCN(C(=O)C2CC2)CC1 [Olaparib] (first compound max 1 µM, 7x7, partner max 10 µM)	-0.0212	-0.0525	-0.0032	0.0242	-0.0105	0.0008	0.0231	-0.0059	-0.015	0.0434	-0.0208	-0.0029	-0.0339	-0.0196	0.0006	-0.0348	0.0123	-0.0094	-0.0755	0.017
CCN(CCO)CCCOc1ccc2c(Nc3cc(CC(=O)Nc4cccc(F)c4)[nH]n3)ncnc2c1 [AZD2811] + C[C@@H]1COCCN1C2=NC(=NC(=C2)C3(CC3)[S@](=N)(=O)C)C4=C5C=CNC5=NC=C4 [AZD6738] (first compound max 1 µM, 7x7, partner max 10 µM)	-0.008	-0.0499	-0.038	-0.0273	-0.0535	0.0268	-0.007	-0.0972	-0.042	-0.0239	-0.0385	-0.0208	-0.0118	-0.0308	-0.112	-0.0107	-0.0123	-0.0167	-0.0864	-0.0219
C=CCn1c(=O)c2cnc(Nc3ccc(N4CCN(C)CC4)cc3)nc2n1-c1cccc(C(C)(C)O)n1 [AZD1775] + C[C@@H]1COCCN1C2=NC(=NC(=C2)C3(CC3)[S@](=N)(=O)C)C4=C5C=CNC5=NC=C4 [AZD6738] (first compound max 1 µM, partner max 10 µM)	-0.0203	0.044	0.0917	0.0052	0.02	0.0194	0.0279	-0.0717	-0.002	0.0139	-0.0022	0.0397	-0.0103	0.0124	0.0055	-0.0173	0.0006	-0.0081	-0.0302	0.053
